From patent US20260043057A1, “ENZYMATIC SYNTHESIS OF MYCOSPORINE-LIKE AMINO ACIDS” (University of Florida Research Foundation, Incorporated, priority 2022, published 2026)
Each block holds one molecule with its values, some of them ahead of it.

Tests used:
[1] = Maximal UV absorbance of MAAs by HPLC with PDA detector; assay type: physicochemical; details: compound produced in engineered E. coli, methanolic extract of cell pellets
Protocol: HPLC and LC-MS Analysis. Samples were analyzed on a Shimadzu Prominence UHPLC system (Kyoto, Japan) coupled with a PDA detector. The compounds were separated on a Phenomenex Luna C8 column (4.6×250 mm, 5 μm) using the following HPLC program: 2% B for 15 min, 2-90% B gradient in 2 min, 90% B for 2 min, 90-2% in 2 min, and re-equilibration in 2% B for 6 min. The A phase was 0.1 M triethylammonium acetate pH 7.0 and the B phase was methanol. The flow rate was set at 0.5 mL/min. In the quantitative analysis of relative activity of MysD with different amino acid substrates, water containing 0.1% formic acid was used as phase A to fully separate MG with MG-Ala. LC-HRMS and HRMS/MS experiments were conducted on Thermo Scientific™ Q Exactive Focus mass spectrometer with Dionex™ Ultimate™ RSLC 3000 uHPLC system, equipped with H-ESI II probe on Ion Max API Source. Methanol (B)/Water (A) containing 0.1% formic acid were used as mobile phases, and the same LC program was used as in the HPLC analysis. The eluents from the first 3 min were diverted to waste by a diverting valve. MS1 signals were acquired under the Full MS positive ion mode covering a mass range of m/z 150-2000, with resolution at 35,000 and AGC target at 1e6. Fragmentation was obtained with the Parallel Reaction Monitoring (PRM) mode using an inclusion list of calculated parental ions. The AGC target was set at 5e4 for MS2. Precursor ions were selected in the quadrapole typically with an isolation width of 3.0 m/z and fragmented in the HCD cell at a collision energy (CE) of 30. For some ions, the isolation width was 2.0 m/z and step-wise CE of 15, 20, and 25 were used.
HPLC and LC-HRMS analysis. Samples were analyzed on a Shimadzu Prominence UHPLC system (Kyoto, Japan) coupled with a PDA detector. Unless stated elsewhere, the following HPLC procedure was performed. The compounds were separated on a Phenomenex Luna C8 column (4.6×250 mm, 5 μm) using the following HPLC program: 2% B for 15 min, 2-90% B gradient in 2 min, 90% B in 2 min, 90-2% in 2 min, and re-equilibration in 2% B for 6 min. The A phase was water with 0.1 M triethylamine acetate (TEAA) at pH 7 and the B phase was methanol. The flow rate was set at 0.5 mL/min. LC-HRMS and HRMS/MS experiments were conducted on a Thermo Scientific Q Exactive Focus mass spectrometer with a Dionex Ultimate RSLC 3000 uHPLC system, equipped with the H-ESI II probe on an Ion Max API Source. Methanol (B)/water (A) containing 0.1% formic acid were used as mobile phases. The eluents from the first 3 min were diverted to waste by a diverting valve. MS1 signals were acquired under the Full MS positive ion mode, covering a mass range of m/z 150-2000, with resolution at 35 000 and AGC target at 1×10^6.

[2] = test system: MysD; experiment: MysD reaction with MG and amino acid substrates (substrate preference); assay type: biochemical, Nostoc linkia NIES-25; details: for consumption level of MG in the MysD reaction relative to that with L-Thr (set as 100%): L-Thr and L-Ser 8 min, other amino acids 30 min, from produced disubstituted MAAs; for consumption of MG in the MysD reaction: optimal conditions, after 3 h
Protocol: The current and previous heterologous expression studies supported the function of MysD in the biosynthesis of disubstituted MAAs (FIG. 3).^29,35 To further characterize its catalytic properties, recombinant His6-tagged MysD of N. linkia NIES-25 was prepared from E. coli after a single affinity purification (FIG. 21). The enzyme reaction was performed with MysD (0.5 μM), MG (50 μM), and L-Thr (1 mM) in the presence of ATP (1 mM) and Mg^2+ (10 mM) at room temperature for 2 h. […] No product was formed in the control reactions without enzyme or ATP (FIG. 5A). The requirement of ATP for the MysD reaction supports its prediction as the D-Ala-D-Ala ligase-like enzyme of the ATP grasp superfamily.^29 The optimal temperature and pH of its reaction were determined at 37° C. and pH=8.5 (FIG. 22). Under these optimal reaction conditions, all 20 natural amino acids were screened (5 mM) along with MG (50 μM) in the MysD reaction. […] LC-HRMS and MS/MS analysis indicated the formation of their corresponding disubstituted MAAs, MG-Ala, MG-Arg (observed [M+H]^+: 402.1977; calculated [M+H]^+: 402.1983), MG-Cys (observed [M+H]^+: 349.1059; calculated [M+H]^+: 349.1064), mycosporine-2-Gly (observed [M+H]^+: 303.1182; calculated [M+H]^+: 303.1187), shinorine, and porphyra-334 (FIGS. 24, 25, and 26). […] Nonetheless, the result of this biochemical study well agreed with the production of porphyra-334 along with small amounts of shinorine and MG-Ala in the above heterologous expression study (FIG. 3C). To further understand MysD's substrate preference, the enzyme concentration was lowered to 0.25 μM. […] The consumed MG level in this reaction was set as 100% to normalize its level in the five other reactions, which was determined from the concentrations of produced disubstituted MAAs in the reactions (FIG. 5C). […] Together, the results of these biochemical studies highlight the broad substrate scope of MysD and its strong preference toward L-Thr in the MAA biosynthesis.
MysD Reaction. MG was purified from extracts of E. coli expressing MysAB2C by HPLC and used as the substrate for the MysD reactions. The quality of MG was calculated based on its reported extinction coefficient (28,100 M^−1cm^−1). The initial MysD reactions included MG (50 μM), L-Thr (1 mM), Mg^2+ (10 mM), and ATP (1 mM) in 100 mM Tris-Cl, pH 7.5. The reactions were initiated by adding MysD (0.5 μM) and then incubated at room temperature for 2 h. The control reactions omitted MysD or ATP. All reactions were quenched by heat inactivation at 95° C. for 10 min. After centrifugation at 20,000×g for 15 min, the clear supernatants were collected for HPLC and LC-HRMS analysis. To determine the optimal reaction conditions, the MysD reaction was performed in 100 mM buffer with a pH of 6.5 to 11 at 16 to 60° C. for 6 min. To explore the substrate scope of MysD, all 20 natural amino acids (5 mM) were screened in the above reaction mixtures under the optimal conditions for 3 h. The reactions were terminated and then analyzed in the HPLC and/or LC-MS analysis. To determine the relative activity of six identified amino acids as MysD's substrates, a two-step strategy was used. First, the reactions were performed with 0.25 μM MysD for 8 min, which led to no more than 50% consumption of MG into porphyra-334 with the best substrate L-Thr and into shinorine with L-Ser. For the other four amino acids, the levels of their corresponding disubstituted MAAs were determined after the reaction time was elongated to 30 min. All reactions were performed in at least two independent replicates.

[3] = reported value used to quantify MG; cited from earlier work
[4] = test system: MysH; experiment: MysH reaction steady-state kinetics with porphyra-334; assay type: biochemical, Nostoc linckia NIES-25; details: 20 to 1000 uM porphyra-334, 0.5 uM MysH, room temperature, 30 min, pH 7.5
Protocol: To further characterize the catalytic properties of MysH, the recombinant MysH of Nostoc linckia NIES-25 was prepared with a C-terminal His6-tag in E. coli after a single Ni-NTA affinity purification (FIG. 33A). The MysH reaction contained 50 mM Tris-Cl at pH 7.5, 0.5 uM MysH, 50 uM porphyra-334, 1 mM 2-oxoglutarate (2OG), 1 mM Fe(NH4)2(SO4)2, 10 mM ascorbate, and the reaction was performed at room temperature overnight. MysH successfully converted porphyra-334 into palythine-Thr in the HPLC analysis, while the complete conversion was not achieved with a higher enzyme concentration or a longer reaction time. […] To improve the reaction conversion, different concentrations of 2OG, Fe(NH4)2(SO4)2, ascorbate, and shaking speed were tested, but no significant improvement was observed. On the other hand, the inclusion of catalase led to the full conversion of porphyra-334 by MysH (FIG. 33B). The Fe(III)-O—O· species is likely one key intermediate in the MysH reaction. Hydrogen peroxide may be released via […] of Fe(III)-O—O· and inhibit the enzyme reaction.
The optimal MysH reaction conditions were determined to be 50 mM HEPES, pH 7.5, 0.5 uM MysH, 1 mM α-KG, 1 mM ascorbate, 10 uM Fe(NH4)2(SO4)2, and 8 μg/mL catalase. Steady-state kinetic studies were performed with 20 to 1000 uM porphyra-334, and the reactions were carried out at room temperature for 30 min. The reactions followed Michaelis-Menten kinetics (FIG. 34).

maximal absorbance [1]: 310 nm
Molecule: COC1=C(NCC(=O)O)C[C@@](O)(CO)CC1=O [MG, mycosporine-glycine]
extinction coefficient [3]: 28,100 M^−1cm^−1

maximal absorbance [1]: around 334 nm
Molecule: COC1=C(NCC(=O)O)CC(O)(CO)C/C1=N\C(C)C(=O)O (centres unmarked) [MG-Ala, mycosporine-glycine-alanine]

maximal absorbance [1]: 320 nm
Molecule: COC1=C(N)CC(O)(CO)CC1=NC(CO)C(=O)O (centres unmarked) [Palythine-Ser, palythine-Ser]

maximal absorbance [1]: 320 nm
Molecule: COC1=C(N)C[C@@](O)(CO)C/C1=N\[C@H](C(=O)O)C(C)O (some centres unmarked) [palythine-Thr]

The next lines start with the molecule.

Molecule: COC1=C(O)CC(O)(CO)CC1=O (centres unmarked) [4-DG, 4-deoxygadusol]
maximal absorbance [1]: 294 nm

Molecule: C[C@H](N)C(=O)O [L-Ala]
consumption level of MG in the MysD reaction relative to that with L-Thr (set as 100%) ([2]; 0.25 μM MysD): 0.4%

Molecule: N[C@@H](CS)C(=O)O [L-Cys]
consumption level of MG in the MysD reaction relative to that with L-Thr (set as 100%) ([2]; 0.25 μM MysD): 0.9%

Molecule: N[C@@H](CO)C(=O)O [L-Ser]
consumption level of MG in the MysD reaction relative to that with L-Thr (set as 100%) ([2]; 0.25 μM MysD): about 12.7%
consumption of MG in the MysD reaction ([2]; 5 mM amino acid, 50 μM MG): complete consumption of MG

Molecule: C[C@@H](O)[C@H](N)C(=O)O [L-Thr]
MG converted into porphyra-334 ([2]; 0.25 μM MysD, 50 μM MG, 5 mM amino acid, 8 min, optimal conditions (37° C., pH 8.5)): about 40%
consumption of MG in the MysD reaction ([2]; 5 mM amino acid, 50 μM MG): complete consumption of MG

Molecule: COC1=C(NCC(=O)O)C[C@@](O)(CO)CC1=N[C@H](C(=O)O)[C@@H](C)O [porphyra-334]
maximal absorbance [1]: around 334 nm
Km [4]: 385 µM
Vmax [4]: 0.62 µM/min
kcat [4]: 0.0207 s⁻¹

Molecule: mycosporine-amine [M-NH2]
maximal absorbance [1]: 298 nm
